Data reported in PubChem BioAssay AID2060498 (Molecular Pharmacology Branch, DTP, NCI, 2025).

Test system: 171881-019-R-J1-PDC tumor spheroids, viability
Assay: Anticancer human tumor 171881-019-R-J1-PDC patient-derived invasive breast carcinoma cell line growth inhibition [GQUAD]
Conditions: spheroids with HUVEC and MSC; for IC50: curve of first compound; for viability, T/C: stronger effect = lower value
In short: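 Viability of tumor cells grown as complex spheroids with endothelial and stromal cells, exposed to drug combinations. Top concentration at or near clinical Cmax (else 10 microM), diluted in half-log increments.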

[1] = second compound 0.0316 µM, first compound 0.0316 µM
[2] = second compound 0.0316 µM, first compound 0.1 µM
[3] = second compound 0.0316 µM, first compound 0.316 µM
[4] = second compound 0.0316 µM, first compound 1 µM
[5] = second compound 0.0316 µM, first compound 3.16 µM
[6] = second compound 0.0316 µM, first compound 10 µM
[7] = second compound 0.1 µM, first compound 0.0316 µM
[8] = second compound 0.1 µM, first compound 0.1 µM
[9] = second compound 0.1 µM, first compound 0.316 µM
[10] = second compound 0.1 µM, first compound 1 µM
[11] = second compound 0.1 µM, first compound 3.16 µM
[12] = second compound 0.1 µM, first compound 10 µM
[13] = second compound 0.316 µM, first compound 0.0316 µM
[14] = second compound 0.316 µM, first compound 0.1 µM
[15] = second compound 0.316 µM, first compound 0.316 µM
[16] = second compound 0.316 µM, first compound 1 µM
[17] = second compound 0.316 µM, first compound 3.16 µM
[18] = second compound 0.316 µM, first compound 10 µM
[19] = second compound 1 µM, first compound 0.0316 µM
[20] = second compound 1 µM, first compound 0.1 µM
[21] = second compound 1 µM, first compound 0.316 µM
[22] = second compound 1 µM, first compound 1 µM
[23] = second compound 1 µM, first compound 3.16 µM
[24] = second compound 1 µM, first compound 10 µM
[25] = second compound 3.16 µM, first compound 0.0316 µM
[26] = second compound 3.16 µM, first compound 0.1 µM
[27] = second compound 3.16 µM, first compound 0.316 µM
[28] = second compound 3.16 µM, first compound 1 µM
[29] = second compound 3.16 µM, first compound 3.16 µM
[30] = second compound 3.16 µM, first compound 10 µM
[31] = second compound 10 µM, first compound 0.0316 µM
[32] = second compound 10 µM, first compound 0.1 µM
[33] = second compound 10 µM, first compound 0.316 µM
[34] = second compound 10 µM, first compound 1 µM
[35] = second compound 10 µM, first compound 3.16 µM
[36] = second compound 10 µM, first compound 10 µM
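Wherever viability, T/C is given: 100% = DMSO vehicle control viability.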

`CC(=O)O[C@H]1C(=O)[C@@]2(C)[C@H]([C@H](OC(=O)c3ccccc3)[C@]3(O)C[C@H](OC(=O)[C@H](O)[C@@H](NC(=O)c4ccccc4)c4ccccc4)C(C)=C1C3(C)C)[C@]1(OC(C)=O)CO[C@@H]1C[C@@H]2O` + Cc1[nH]c2ccc(F)cc2c1-c1nc2c3cccnc3c3ncccc3c2[nH]1 gave an IC50 (second compound 0.0316 µM) of under 31.6 nM, an IC50 (second compound 0.1 µM) of 36.8 nM and an IC50 (second compound 0.316 µM) of 32.2 nM. For the same compound, the IC50 (second compound 1 µM) was under 31.6 nM, the IC50 (second compound 3.16 µM) was under 31.6 nM and the IC50 (second compound 10 µM) was under 31.6 nM. It also gave a viability, T/C [1] of 52.2%, a viability, T/C [2] of 32.3% and a viability, T/C [3] of 35.5%. It also gave a viability, T/C [4] of 30.8%, a viability, T/C [5] of 28.9% and a viability, T/C [6] of 30.1%. For the same compound, the viability, T/C [7] was 52.5%, the viability, T/C [8] was 33.2% and the viability, T/C [9] was 29.5%. It also gave a viability, T/C [10] of 31%, a viability, T/C [11] of 28.3% and a viability, T/C [12] of 28.7%. For the same compound, the viability, T/C [13] was 50.2%, the viability, T/C [14] was 35.5% and the viability, T/C [15] was 28.8%. It also gave a viability, T/C [16] of 29.5%, a viability, T/C [17] of 29.7% and a viability, T/C [18] of 26.8%. It also gave a viability, T/C [19] of 41.2%, a viability, T/C [20] of 30.2% and a viability, T/C [21] of 32.1%. For the same compound, the viability, T/C [22] was 24.9%, the viability, T/C [23] was 29.7% and the viability, T/C [24] was 24.6%. For the same compound, the viability, T/C [25] was 6.75%, the viability, T/C [26] was 4.71% and the viability, T/C [27] was 4.42%. It also gave a viability, T/C [28] of 3.51%, a viability, T/C [29] of 5.16% and a viability, T/C [30] of 3.23%. For the same compound, the viability, T/C [31] was 27.3%, the viability, T/C [32] was 25.1% and the viability, T/C [33] was 17.3%. For the same compound, the viability, T/C [34] was 21.1%, the viability, T/C [35] was 23.2% and the viability, T/C [36] was 18.3%.

With `CCCS(=O)(=O)Nc1ccc(F)c(C(=O)c2c[nH]c3ncc(-c4ccc(Cl)cc4)cc23)c1F` + Cc1[nH]c2ccc(F)cc2c1-c1nc2c3cccnc3c3ncccc3c2[nH]1 the IC50 (second compound 0.0316 µM) was 9320 nM, the IC50 (second compound 0.1 µM) was 8860 nM and the IC50 (second compound 0.316 µM) was 7730 nM. It also gave an IC50 (second compound 1 µM) of 5620 nM, an IC50 (second compound 3.16 µM) of under 31.6 nM and an IC50 (second compound 10 µM) of 31.6 nM. It also gave a viability, T/C [1] of 104%, a viability, T/C [2] of 106% and a viability, T/C [3] of 102%. It also gave a viability, T/C [4] of 121%, a viability, T/C [5] of 99% and a viability, T/C [6] of 46.7%. For the same compound, the viability, T/C [7] was 105%, the viability, T/C [8] was 106% and the viability, T/C [9] was 105%. It also gave a viability, T/C [10] of 107%, a viability, T/C [11] of 110% and a viability, T/C [12] of 43.3%. It also gave a viability, T/C [13] of 90.2%, a viability, T/C [14] of 77.2% and a viability, T/C [15] of 98.2%. It also gave a viability, T/C [16] of 93.2%, a viability, T/C [17] of 95.8% and a viability, T/C [18] of 38.1%. For the same compound, the viability, T/C [19] was 73.7%, the viability, T/C [20] was 60.8% and the viability, T/C [21] was 82.4%. The viability, T/C [22] was 80.7%, the viability, T/C [23] was 77.4% and the viability, T/C [24] was 25%. It also gave a viability, T/C [25] of 7.61%, a viability, T/C [26] of 8.32% and a viability, T/C [27] of 6.95%. It also gave a viability, T/C [28] of 5.17%, a viability, T/C [29] of 12.6% and a viability, T/C [30] of 8.93%. For the same compound, the viability, T/C [31] was 46.9%, the viability, T/C [32] was 45.5% and the viability, T/C [33] was 44.4%. It also gave a viability, T/C [34] of 55.2%, a viability, T/C [35] of 51.3% and a viability, T/C [36] of 18.5%.
